Results as given in EP0408760B1, “NEW HYDROXYLAMINE DERIVATIVE” (FUJISAWA PHARMACEUTICAL CO., LTD., priority 1988, dated 1990).

Test system: D-Galactosamine-induced hepatitis in rats
Assay: Effect of compound on D-Galactosamine-induced hepatitis in rats (serum GOT and GPT)
Format: in vivo
Conditions: orally 3 hour before and after D-Galactosamine, blood 24 hours later, male Wistar rats
Method: Method : Effect of compound on D-Galactosamine-induced hepatitis in rats
Acute hepatitis was induced in male Wistar rats at 6 weeks of age by the intraperitoneal injection of 80 mg/ml D-Galactosamine in saline at the volume of 5 ml/kg. Blood samples were taken in rats under ether anaesthesia 24 hours later.
After centrifugation for the separation of sera, the levels of GOT and GPT were determined spectrophotometrically according to Biochemical Analyzer TBA-20R (Toshiba).
Compound was dissolved in polyethylene glycol 400, and administered orally 3 hour before and after the injection of D-Galactosamine.
The levels of serum GOT and GPT in group of animals were measured as described above, and the mean value of each group calculated, including normal rats without D-Galactosamine injection.
The effect of compound was expressed as the percentage Inhibition at serum GOT and GPT, taking activity of control serum as 0% Inhibtion and that of normal serum as 100% Inhibition.

CCNC(=O)N(O)CC1=Cc2cccc(Oc3ccccc3)c2CC1 [Test Compound (f), N-[(3,4-Dihydro-5-phenoxy-2-naphthyl)methyl]-N-hydroxy-N'-ethylurea]
Inhibition (%) serum GOT (dose 1 mg/kg): 38%
Inhibition (%) serum GPT (dose 1 mg/kg): 42%
Inhibition (%) serum GOT (dose 10 mg/kg): 40%
Inhibition (%) serum GPT (dose 10 mg/kg): 37%
Inhibition (%) serum GOT (dose 32 mg/kg): 67%
Inhibition (%) serum GPT (dose 32 mg/kg): 64%
